Results from patent publication US20090274662A1, “Methods And Kits For The Treatment Of Inflammatory Bowel Disorder Conditions” (priority 2008, published 2009).

Conditions: male, human, in vivo
From the text: The patient is prescribed a pharmaceutical composition to be taken twice each week. Each unit dose of the pharmaceutical composition comprises 7200 milligrams of delayed-release mesalamine.

Nc1ccc(O)c(C(=O)O)c1 [delayed-release mesalamine, 5-amino-2-hydroxybenzoic acid]
amount of delayed-release mesalamine absorbed into the mucosa and colonic wall: equivalent to that of 2400 milligrams mesalamine taken once-daily
